Test results reported in patent US20050036994A1, “Compounds and methods for downregulating the effects of TGF-beta” (priority 2003, published 2005).

Columns and labels:
pericellular cathepsin B [1] = target: T1, pericellular cathepsin B (Mus musculus, UniProt P10605); assay: Pericellular cathepsin B assay (z-Arg-Arg-AMC) on transfected LLC cells; assay type: biochemical; settings: 25 nM inhibitor added to the assay
T1 construct: These cells normally express cathepsin B; endogenous in cells; host or cells: Lewis lung carcinoma (LLC) cells, intact cell suspension, transfected with AHSG or empty vectors (not with cathepsin B)
T1 sequence (P10605 80-333): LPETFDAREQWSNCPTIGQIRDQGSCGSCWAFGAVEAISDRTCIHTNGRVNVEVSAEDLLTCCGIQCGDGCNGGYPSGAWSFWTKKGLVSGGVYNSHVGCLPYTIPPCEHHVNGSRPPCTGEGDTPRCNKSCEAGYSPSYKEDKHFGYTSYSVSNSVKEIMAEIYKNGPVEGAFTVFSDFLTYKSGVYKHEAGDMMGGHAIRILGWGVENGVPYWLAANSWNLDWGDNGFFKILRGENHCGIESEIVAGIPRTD
Source text: In this example we used the fluorogenic substrate called z-Arg-Arg-AMC. […] The ability of this substrate to stay outside the cell allowed us to measure the enzymatic activity of pericellular cathepsin B (Hulkower, K. I. et al Eur J Biochem 267:4165 (2000). Many human and mouse cancer cell lines have cathepsin B activity on the cell surface.
To measure the effect of AHSG on the activity of cathepsin B, we expressed AHSG using expression vectors, pAAV-AHSG or pCDNA-AHSG that were used to transfect Lewis lung carcinoma (LLC) cells. These cells normally express cathepsin B (Hulkower, K. I. et al Eur J Biochem 267:4165 (2000)). Thus the addition of the substrate to the cells transfected with a non-specific vector lead to lysis of the peptide and the resulting level of cathepsin B activity was arbitrarily set at 100 (FIG. 7, left column). Cathepsin B activity following transfection with pAAV-AHSG was roughly 25% lower than that in control cells (FIG. 7, second column). Next 25 nM of a known inhibitor of cathepsin B, CA 074 was added to the assay. […] Despite the low transfection efficiency of LLC cells that ranged from 10 to 20% as measured using in situ staining of β-galactosidase activity, the observed reduction of the cathepsin B in the presence of AHSG supports the present invention that expression of AHSG suppresses cathepsin B activity on the cell surface. […]

pericellular cathepsin B [2] = assay: Pericellular cathepsin B assay with partially purified AHSG or concentrated spent media of infected HEK293 cells (FIG. 8); assay type: biochemical; settings: for inhibition of pericellular cathepsin B activity: FIG. 8
Protocol: 50 μl of the cell suspension was added to a black walled 96 well plate (ThermoLabsystems, Part No. 8220, Vantaa, Finland). The appropriate concentration of inhibitors of cathepsin B, purified AHSG or concentrated media were diluted in 5 μl of PAB and the added to the cell suspension in each of the 96 wells. The plate was pre-incubated at 40° C. for 30 min. The reaction was started by adding 50 μl of a 200 μM solution of z-Arg-Arg-AMC (EMD Biosciences Inc, Darmstadt, Germany), a fluorogenic peptide that is lysed by cathhepsin B. This substrate was dissolved in PAB and pre-incubated at 40° C. prior to use. Hydrolytic activity of cathepsin B produces free AMC from the substrate peptide resulting in increased fluorescence. The intensity of fluorescence was measured using ThermoLabsystems Fluoroskan microplate reader with a 355 nm excitation filter and a 420 nm emission filter. The stock solution of z-Arg-Arg-AMC was dissolved in DMSO at the concentration of 10 mM and stored in −80° C. The Cathepsin B specific inhibitors CA-074 and Ac-LVK-CHO (EMD Biosciences Inc., Darmstadt, Germany) were dissolved in H2O at the concentration of 10 mM, aliquoted and stored in −80° C.
HEK 293 cells were subcultured at the cell density of 40% confluence in the morning of the study. […] The next day culture medium was replaced with fresh D-MEM supplemented with 5% FCS and culture for 2 additional days. The culture medium was passed through a filter with the pore size of 0.22 micron and then stored at −80° C. […] A centrifugal filtration unit, NanoSep 100 (Pall Corporation, Ann Arbor, Mich.) were applied to collect the molecular weights lower than 100 kD. The 0.4 ml of the flow through fraction from NanoSep 100 was applied to Nanosep30 and the remaining protein on the filter membrane was re-suspended in 40 μl of PAB (Hank's balanced salt solution without sodium bicarbonate, 0.6 mM MgCl2, 0.6 mM CaCl2, 2 mM 1-cystein and 25 mM PIPES adjusted pH to 7.0) The protein concentration was determined using Bradford reagent (Bio-Rad, Hercules, Calif.). The aliqouts of protein solution was flash frozen by liquid nitrogen and stored in −80° C. prior to use.

| Molecule | inhibition of cathepsin B activity (words) (pericellular cathepsin B [1]) | inhibition of cathepsin B activity (words) (pericellular cathepsin B [1]; listed as CA 074) | inhibition of pericellular cathepsin B activity (pericellular cathepsin B [2]) | inhibition of pericellular cathepsin B activity (pericellular cathepsin B [2]; listed as AHSG purchased from Sigma) | amount of protein required for complete inhibition, relative to the concentration of AHSG in the blood of adults (0.3 to 0.6 mg/ml) (pericellular cathepsin B [2]; one of the lots) |
| --- | --- | --- | --- | --- | --- |
| CCCNC(=O)[C@H]1O[C@@H]1C(=O)N[C@H](C(=O)N1CCC[C@H]1C(=O)O)[C@@H](C)CC [CA-074] | inhibited cathepsin B activity | expected inhibition of cathepsin B activity | inhibited activity of cathepsin B |  |  |
| purchased AHSG: purchased AHSG (Sigma) partially purified from human plasma (protein, UniProt P02765 19-300; P02765 341-367, looked up) Alpha-2-HS-glycoprotein chain … 1: APHGPGLIYRQPNCDDPETEEAALVAIDYINQNLPWGYKHTLNQIDEVKVWPQQPSGELFEIEIDTLETTCHVLDPTPVARCSVRQLKEHAVEGDCDFQLLKLDGKFSVVYAKCDSSPDSAEDVRKVCQDCPLLAPLNDTRVVHAAKAALAAFNAQNNGSNFQLEEISRAQLVPLPPSTYVEFTVSGTDCVAKEATEAAKCNLLAEKQYGFCKATLSEKLGGAEVAVTCMVFQTQPVSSQPQPEGANEAVPTPVVDPDAPPSPPLGAPGLPPAGSPPDSHVL Alpha-2-HS-glycoprotein chain … 2: TVVQPSVGAAAGPVVPPCPGRIRHFKV |  |  | inhibited completely the activity of cathepsin B | significant inhibition of pericellular cathepsin B activity | less than 10% |
